In publication PMC8510013, “Active Flavonoids from Colubrina greggii var. greggii S. Watson against Clinical Isolates of Candida spp” (Molecules, 2021):
Converted amounts (≈) assume the structure as drawn. Read-outs that look alike come from different tables or passages of the source.

Experiments:
[1] = tested on: C. parapsilosis; test: Broth microdilution antifungal assay (CLSI M27-A2), clinical isolates; assay type: cell-based, Candida parapsilosis
Method: (§1) Clinical isolates were provided by the Microbiology Department of the Medical School, UANL: isolates 97 and 98 of C. albicans, isolates 83 and 84 of C. glabrata, isolates 95 and 96 of C. parapsilosis, isolates 105 and 166 of C. tropicalis, and isolates 137 and 168 of C. krusei.
(§2) Inoculates from the above-mentioned isolates were prepared and growing on Sabouraud agar. The extracts were tested using microdilution assay according to the protocol M27-A2 defined by the Clinical Laboratory Standards Institute. Two clinical isolates were used for each species of Candida, and each test was made in duplicate. Isolates 83 and 84 of C. glabrata are resistant strains to fluconazole. Serial two-fold dilutions ranging from 2 to 500 μg/mL were made for all extracts, fractions, and isolated compounds. The minimal inhibitory concentration (MIC) was defined as the lowest tested extract concentration that inhibits 100% of organism growth compared to the growth of the drug-free control.

[2] = tested on: Candida glabrata; settings: cited from earlier work
[3] = tested on: C. albicans; settings: cited from earlier work
[4] = tested on: C. glabrata; test: Broth microdilution antifungal assay (CLSI M27-A2), clinical isolates; assay type: cell-based, Candida glabrata
Method: as §1, §2

[5] = tested on: C. tropicalis; set-up: method as in doi:10.1016/j.phytol.2015.02.006; settings: C. tropicalis ATCC 750; cited from earlier work
[6] = tested on: C. tropicalis; test: Broth microdilution antifungal assay (CLSI M27-A2), clinical isolates; assay type: cell-based, Candida tropicalis
Method: as §1, §2

[7] = tested on: C. parapsilosis; settings: C. parapsilosis ATCC 20019; cited from earlier work
[8] = tested on: C. krusei; settings: C. krusei ATCC 20298; cited from earlier work
[9] = tested on: C. krusei; test: Broth microdilution antifungal assay (CLSI M27-A2), clinical isolates; assay type: cell-based, Candida krusei
Method: as §1, §2

[10] = In vitro cytotoxic assay on Vero cell line (MTT); assay type: cell-based; settings: African green monkey, Vero cells, mean (n = 3) ± SD
Method: The cytotoxicity assay was performed by the 3-(4,5-dimethylthiazol-2-yl) 2,5-diphenyltetrazolium bromide (MTT) assay as previously described. The Vero cell line was maintained in DMEM supplemented with 2% FBS, streptomycin, and penicillin at 1%. All cell cultures were incubated at 37 °C in a humidified atmosphere of 5% CO2. Cells were harvested, counted, and transferred into 96 well plates and incubated for 24 h prior to the addition of test compounds. Serial dilutions of test samples were prepared by dissolving compounds in DMSO followed by dilution with DMEM to yield the final DMSO concentration in the assay well as 1%. Stock solutions of fractions and compounds 1, 2, and 3 were prepared at […] and diluted further to yield concentrations ranging from 2000–15.6 μg/mL. The plates were incubated for 48 h. MTT (3-[4,5-dimethylthiazol-2-yl]-2,5-diphenyltetrazolium bromide) (5 mg) was dissolved in 1 mL of Phosphate Buffer Solution (PBS) and 10 μL of it was added to each of the 96 wells. The plates were incubated at 37 °C for 3 h. The solution in each well-containing media, unbound MTT and dead cells were removed by suction and 100 μL of DMSO was added to each well. The plates were then shaken and optical density was recorded using a microplate reader at 540 nm. Doxorubicin was used as positive control and DMSO as solvent control. The CC50 was determined as the concentration of extract required reducing cell viability by 50%, taking as 100%, the untreated cells. The experiments were performed in triplicate for each extract. In parallel, we performed the same experiment using untreated cells as a control.

[11] = Brine shrimp lethality bioassay; settings: Artemia salina, in vivo; 24 h counts, mean (n = 3) ± SD
Method: In order to evaluate the toxicity of the compounds with antifungal activity obtained during separation, a test of lethality to Artemia salina brine shrimp was made. Concentrations of 1, 10, 100, and 500 ppm of each active fraction and each compound were tested. […] LC50 values greater than 200 ppm were considered non-toxic.

[12] = tested on: Candida albicans; test: Broth microdilution antifungal assay (CLSI M27-A2), clinical isolates; assay type: cell-based
Method: as §1, §2

[13] = Lodderomyces parapsilosis, Cp isolate 95, read-out: MIC
[14] = Lodderomyces parapsilosis, Cp isolate 96, read-out: MIC
[15] = Nakaseomyces glabratus, Cg isolate 83, fluconazole-resistant clinical isolate, read-out: MIC
[16] = Nakaseomyces glabratus, Cg isolate 84, fluconazole-resistant clinical isolate, read-out: MIC
[17] = Candida tropicalis, Ct isolate 105, read-out: MIC
[18] = Pichia kudriavzevii, Ck isolate 137, read-out: MIC
[19] = Pichia kudriavzevii, Ck isolate 168, read-out: MIC
[20] = Candida albicans, Ca isolate 97, read-out: MIC
[21] = Nakaseomyces glabratus, C. glabrata, isolate not stated, read-out: MIC

Molecule	MIC ([6]; Ct isolate 166) [µg/mL]	CC50 at 48 h [10] [µg/mL]	LC50 at 24 h [11] [µg/mL]	MIC ([12]; Ca isolate 98) [µg/mL]	MIC [1, 13] [µg/mL]	MIC [1, 14] [µg/mL]	MIC [4, 15] [µg/mL]	MIC [4, 16] [µg/mL]	MIC [6, 17] [µg/mL]	MIC [9, 18] [µg/mL]	MIC [9, 19] [µg/mL]	MIC [12, 20] [µg/mL]	MIC [4, 21] [µg/mL]	further results
C[C@@H]1O[C@@H](Oc2c(-c3ccc(O)c(O)c3)oc3cc(O)cc(O)c3c2=O)[C@H](O)[C@H](O)[C@H]1O [Compound 1, quercetin 3-O-α-L-rhamnoside]	>500	1660 ± 81 (≈ 3700 µM)	> 500	500 (≈ 1120 µM)										MIC ([1]; Cp isolate 95): 125 µg/mL (≈ 279 µM); MIC ([1]; Cp isolate 96): 125 µg/mL (≈ 279 µM); MIC ([1]; Lodderomyces parapsilosis): 125 µg/mL (≈ 279 µM); MIC ([2]; isolates 510, 493, 482, 531 of C. glabrata): 7.8 µg/mL (≈ 17.4 µM); MIC ([3]; C. albicans ATCC 18804): below 250 μg/mL; MIC ([4]; Cg isolate 83, fluconazole-resistant clinical isolate): 16 µg/mL (≈ 35.7 µM); MIC ([4]; Cg isolate 84, fluconazole-resistant clinical isolate): 16 µg/mL (≈ 35.7 µM); MIC ([4]; Nakaseomyces glabratus): 16 µg/mL (≈ 35.7 µM); MIC [5]: below 250 μg/mL; MIC ([6]; Candida tropicalis): > 500 µg/mL; MIC [7]: below 250 μg/mL; MIC [8]: below 250 μg/mL; MIC ([9]; Ck isolate 137): 500 µg/mL (≈ 1120 µM); MIC ([9]; Ck isolate 168): 500 µg/mL (≈ 1120 µM); MIC ([9]; Pichia kudriavzevii): 500 µg/mL (≈ 1120 µM); MIC ([12]; Ca isolate 97): 500 µg/mL (≈ 1120 µM); MIC ([12]; Candida albicans): 500 µg/mL (≈ 1120 µM)
Kaempferol-3-O-rutinoside [reference compound]														MIC ([3]; Candida albicans ATCC 14053 and ATCC10231): 500 µg/mL
OC(Cn1cncn1)(Cn1cncn1)c1ccc(F)cc1F [Fluconazol, reference compound]	2 (≈ 6.53 µM)			4 (≈ 13.1 µM)	0.5 (≈ 1.63 µM)	1 (≈ 3.27 µM)	32 (≈ 104 µM)	63 (≈ 206 µM)	2 (≈ 6.53 µM)	32 (≈ 104 µM)	4 (≈ 13.1 µM)	4 (≈ 13.1 µM)		
C[C@@H]1O[C@@H](Oc2c(-c3ccc(O)cc3)oc3cc(O)cc(O)c3c2=O)[C@H](O[C@@H]2OC[C@@H](O)[C@H](O)[C@H]2O)[C@H](O)[C@H]1O [Compound 3, kaempferol 3-O-α-L-rhamnopyranosyl-L-(2→1)-O-β-xylopyranoside]	>500	> 2000	254.8 ± 0.024 (≈ 451 µM)	>500	> 500	> 500	16 (≈ 28.3 µM)	16 (≈ 28.3 µM)	> 500	> 500	> 500	> 500	16 (≈ 28.3 µM)	
O=c1c(O)c(-c2ccc(O)cc2)oc2cc(O)cc(O)c12 [kaempferol, reference compound]														MIC ([2]; six clinical isolates of Candida glabrata including one resistant to fluconazole): 31.5 µg/mL (≈ 110 µM)
C[C@@H]1O[C@@H](Oc2c(-c3ccc(O)c(O)c3)oc3cc(O)cc(O)c3c2=O)[C@H](O[C@@H]2OC[C@@H](O)[C@H](O)[C@H]2O)[C@H](O)[C@H]1O [Compound 2, quercetin 3-O-α-L-rhamnopyranosyl-L-(2→1)-O-β-xylopyranoside]	>500	> 2000	322.8 ± 0.009 (≈ 556 µM)	>500	> 500	> 500	63 (≈ 109 µM)	63 (≈ 109 µM)	> 500	> 500	> 500	> 500	63 (≈ 109 µM)	
